The values below come from ChEMBL document CHEMBL1150691, “New lysophosphatidylcholines and monoglycerides from the marine sponge Stelletta sp” (2003).

SMILES strings stand for the structures. In brackets after ≈: the same amount, converted by molar mass.

Assay type in all cases: functional
Common to all, as to details: read-out: ED50 (the source's name)

For one assay, the system named is A549. Kind of assay: Cytotoxicity against human A549 cells.
The subject of another assay is SK-OV-3. Kind of assay: Cytotoxicity against human SKOV3 cells.
The subject of another assay is SK-MEL-2. Kind of assay: Cytotoxicity against human SK-MEL-2 cells.
For the next assay, the system named is XF498. Kind of assay: Cytotoxicity against human XF498 cells.
The next assay relates to HCT-15. Briefly: Cytotoxicity against human HCT15 cells.

For the molecule `CC(C)CCCCCCCCCC(C)C(=O)OC[C@@H](O)CO` (stereo not given in full), the EC50 with A549 came out at 20 µg/mL (≈ 63.2 µM); in the assay with SK-OV-3, 38.9 µg/mL (≈ 123 µM); with SK-MEL-2 it was 21.8 µg/mL (≈ 68.9 µM); in the assay with XF498 it was 30.7 µg/mL (≈ 97 µM); with HCT-15 it was 18.6 µg/mL (≈ 58.8 µM).
For the molecule `CC(C)CCCCCCCCCCCCC/C=C\CCCC(=O)OC[C@@H](O)CO`, the EC50 with A549, in the assay with SK-OV-3, in the assay on SK-MEL-2, in the assay with XF498 and in the assay on HCT-15 was above 30 µg/mL each time.
Regarding `CC(C)CCCCCCCCCCCC/C=C\CC/C=C\CCCC(=O)OC[C@@H](O)CO`, the EC50 in the assay on A549, with SK-OV-3, with SK-MEL-2, in the assay with XF498 and with HCT-15 was above 30 µg/mL throughout.
For `C=CCCCCC(C)CCC/C=C\C#CCC[C@H](OC)C(=O)OC[C@@H](O)COP(=O)([O-])CC[N+](C)(C)C` (stereo not given in full), the EC50 in the assay on A549 was 11.8 µg/mL (≈ 21.7 µM); with SK-OV-3, 14.5 µg/mL (≈ 26.7 µM); in the assay on SK-MEL-2, 9.1 µg/mL (≈ 16.7 µM); in the assay with XF498 it was 13.6 µg/mL (≈ 25 µM); in the assay on HCT-15, 15.1 µg/mL (≈ 27.8 µM).
Take `C=CCCCCC(C)CCC/C=C\C#CCC[C@H](OC)C(=O)OC[C@@H](O)CO` (stereo not given in full): the EC50 with A549 is 31.3 µg/mL (≈ 79.3 µM); with SK-OV-3 it was above 30 µg/mL; in the assay on SK-MEL-2, above 30 µg/mL; in the assay on XF498 it was 42.5 µg/mL (≈ 108 µM); in the assay with HCT-15, above 30 µg/mL.
With `COC(=O)CCCCCCCCCCCCCCCCO`, the EC50 with A549, in the assay with SK-OV-3, in the assay on SK-MEL-2, in the assay on XF498 and in the assay with HCT-15 was above 30 µg/mL each time.
On to `COC(=O)CCCCCCCCCCCCCCO`, for which the EC50 with A549 is 25.9 µg/mL (≈ 95.1 µM); in the assay with SK-OV-3 it was 35.7 µg/mL (≈ 131 µM); in the assay with SK-MEL-2, above 30 µg/mL; in the assay with XF498, above 30 µg/mL; in the assay on HCT-15, 16.5 µg/mL (≈ 60.6 µM).
Turning to `COc1cccc2c1C(=O)c1c(O)c3c(c(O)c1C2=O)C[C@@](O)(C(=O)CO)C[C@@H]3O[C@H]1C[C@H](N)[C@H](O)[C@H](C)O1` [DOXORUBICIN], the EC50 was 0.03 µg/mL (≈ 0.0552 µM) in the assay on A549; 0.13 µg/mL (≈ 0.239 µM) in the assay on SK-OV-3; 0.06 µg/mL (≈ 0.11 µM) in the assay with SK-MEL-2; 0.19 µg/mL (≈ 0.35 µM) with XF498; 0.29 µg/mL (≈ 0.534 µM) in the assay on HCT-15.
Take `CC(C)CCCCCCCCCC(C)C(=O)OC[C@@H](O)COP(=O)([O-])CC[N+](C)(C)C` (stereo not given in full) [STELLETTACHOLINE B]: the EC50 in the assay with A549 was determined as 7.4 µg/mL (≈ 15.9 µM); with SK-OV-3, 4.8 µg/mL (≈ 10.3 µM); with SK-MEL-2, 6.3 µg/mL (≈ 13.5 µM); with XF498 it was 24.1 µg/mL (≈ 51.8 µM); in the assay with HCT-15, 26.9 µg/mL (≈ 57.8 µM).
